Measured values from PubChem BioAssay (NCI).
Where “and” joins values, the source holds several entries; their conditions need not be identical. Identical values can stand only once.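 Results reflect a 48-hour exposure of cells in 96-well plates to compound at five concentrations. GI50 = concentration required for 50% inhibition of growth. TGI: total growth inhibition.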

Tested on: MDA-MB-468 breast
Assay: NCI-60 cell line screen, 48 h

O=C(CNC(=O)c1cccc2ccccc12)Nc1ccccc1Oc1cccc(O)c1
GI50: 3.55 µM | TGI: 19.4 µM

O=C(O)C(/C=C/c1ccco1)=N\Nc1nc(-c2ccc(Cl)cc2)cs1
GI50: 10.6 µM | TGI: > 50 µM

CCCCCCCCCCCCCCCCCCOc1ccccc1CC(=O)OCC[N+](C)(C)C
GI50: 1.37 µM | TGI: 3.05 µM

FC(F)(F)c1ccc2c(c1)N(CCCN1CCN(C3CC3)CC1)c1ccccc1S2
GI50: 3.84 µM | TGI: 15.1 µM

N#Cc1nc(-c2cccc(Br)c2)cc(-c2ccc(Nc3nc(N4CCCCC4)nc(N4CCCCC4)n3)cc2)c1N
GI50: 2.16 µM | TGI: 5.64 µM

COc1ccc(C2CC(=O)Nc3c2c(C)nn3-c2nc3ccccc3[nH]2)cc1 (stereo unspecified)
GI50: 2.86 µM | TGI: 12.6 µM

Cc1cn(-c2cc(NC(=O)c3cncc(C#Cc4cnc5ccc(OCCCS(C)(=O)=O)nn45)c3)cc(C(F)(F)F)c2)cn1
GI50: 2.2 µM | TGI: 7.33 µM

O=C(Oc1ccccc1)c1cc(O)c(O)c(O)c1
GI50: 12.6 µM | TGI: 67.5 µM

CN(C)c1cccc2[nH]c(-c3[nH]ncc3Nc3ccnc(N)n3)nc12
GI50: 0.0145 µM | TGI: 0.0422 µM

O=C(Nc1ccccc1Cl)c1cnc2ccc(C3CCNCC3)cn12
GI50: 2.13 µM | TGI: 9.54 µM

COc1cc(C)cc2c1OC(c1ccccc1)CC2=O (stereo unspecified)
GI50: > 100 µM | TGI: > 100 µM

OCCNc1nc(NCCO)nc(Nc2ccc(C3=NN(c4cc(Cl)cc(Cl)c4)C(c4ccc(Cl)cc4)C3)cc2)n1 (stereo unspecified)
GI50: 1.92 µM | TGI: 3.77 µM

COc1ccc2c(c1)[nH]c(=O)c1c3cccnc3cn21
GI50: 0.133 µM | TGI: 2.33 µM

O=c1cc/c(=N\Nc2ccccc2)c(=O)/c1=N/Nc1ccccc1
GI50: > 50 µM | TGI: > 50 µM

COC(=O)c1c2c(c(C)[n+]([O-])c1C)C(=O)C=C(NCc1ccc(Cl)cc1)C2=O
GI50: 0.223 µM | TGI: 0.76 µM

O=[N+]([O-])c1cccc(-c2nc3sccn3c2-c2ccnc(NCCCNS(=O)(=O)c3ccc(F)cc3)n2)c1
GI50: 1.5 µM | TGI: 7.11 µM

CCCCCC(=O)N1c2ccccc2NC2=C(C(=O)CC(c3ccc(OC)c(OC)c3)C2)C1c1ccc(C(F)(F)F)cc1 (stereo unspecified)
GI50: > 100 µM | TGI: > 100 µM

Clc1cc(Cl)cc(N2N=C(c3cccc(Nc4ccncc4)c3)CC2c2ccccc2)c1 (stereo unspecified)
GI50: 1.52 µM | TGI: 3.01 µM

Nc1nc(-n2cccn2)nc(-n2cccn2)c1Br
GI50: > 100 µM | TGI: > 100 µM

COc1nccc(-c2c(-c3ccc(F)cc3)ncn2C2CCC(O)CC2)n1 (stereo unspecified)
GI50: 21.6 µM | TGI: > 89.4 µM

CC(=O)OCC(=O)[C@@]1(O)[C@H](C)C[C@H]2[C@@H]3C=C(C)C4=Cc5c(cnn5-c5ccc(F)cc5)C[C@]4(C)[C@H]3[C@@H](O)C[C@@]21C
GI50: 2.01 µM | TGI: 3.92 µM

COC(=O)Nc1ccc2ccc3c(NC(=O)OC)ccc4ccc1c2c43 (tested in a mixture with another compound)
GI50: 3.8 µM | TGI: 19.2 µM

C#Cc1cccc(NC(=O)Nc2ccc(NC(=O)CCl)cc2)c1
GI50: 13.3 µM | TGI: 32.1 µM

CC1OC(O[C@@H]2C(O)C(CO)OC(O[C@H]3COC(O[C@H]4CC[C@]5(C)[C@H]6CC[C@]78OC[C@@]9(CC[C@](C)(C=O)C[C@H]97)[C@H](O)C[C@@]8(C)[C@]6(C)CC[C@H]5C4(C)C)[C@@H](OC4OC(CO)[C@@H](O)[C@@H](O)[C@@H]4O)[C@@H]3O)[C@H]2OC2OC[C@@H](O)[C@@H](O)[C@@H]2O)[C@@H](O)[C@@H](O)[C@H]1O (stereo partly specified)
GI50: 1.59 µM | TGI: 3.28 µM

Cc1cccc2c3c(sc12)C(c1ccc(Cl)cc1)C(C#N)=C(/N=C/c1ccc(Cl)cc1)O3 (stereo unspecified)
GI50: 0.257 µM | TGI: 2 µM

Cc1ccc(NC(=O)c2ccnc(C(F)(F)F)c2)cc1-c1cc(OCCO)nc(N2CCOCC2)c1
GI50: 1.82 µM | TGI: 7.09 µM

S=C(Nc1ccccc1)c1ccccn1
GI50: 45.3 µM | TGI: > 100 µM

[N-]=[N+]=Nc1ncc(-c2ccc(C(F)(F)F)cc2)c(NC2CCCCCC2)n1
GI50: > 10 µM | TGI: > 10 µM

Cn1cc(-c2cc3ncnc(Nc4ccc(NC(=O)Nc5cc(C(C)(C)C)on5)cc4)c3s2)cn1
GI50: 0.92 µM | TGI: 4.75 µM

COc1cc2c3c(n(CCCNC4CCCC4)c(=O)c2cc1OC)-c1cc2c(cc1C3=O)OCO2
GI50: 5.6 µM | TGI: 19.6 µM

Cn1cnc2c(F)c(Nc3ccc(Br)cc3Cl)c(C(=O)NOCCO)cc21
GI50: > 10 µM and 11.9 µM | TGI: > 10 µM and 71.1 µM

Cc1sc2ncnc(Sc3nc4ccccc4[nH]3)c2c1C
GI50: 17.7 µM | TGI: 60.5 µM

COc1cc(N2CCC(N(C)C)CC2)ccc1Nc1ncc(Cl)c(Nc2ccccc2P(C)(C)=O)n1
GI50: 1.22 µM and 0.897 µM | TGI: 3.71 µM and 4.49 µM

N#C/C(=C\c1cn(-c2ccccc2)c2ccccc12)C(=O)O
GI50: 50.7 µM | TGI: > 100 µM

CC(C)(C)Cn1c(N)nc2ccc(-c3[nH]c(C(C)(C)C)nc3-c3ccc(F)cc3)nc21
GI50: 3.1 µM | TGI: 16.8 µM

C=C1C(=O)O[C@H]2[C@H]1CC/C(COC(=O)NCCc1ccc(OC)cc1)=C\CC[C@@]1(C)O[C@@H]21
GI50: 1.55 µM | TGI: 3.85 µM

COc1ccc(/C=C/C(=O)c2ccc(Nc3ncnc4ccccc34)cc2)cc1OC
GI50: 2.17 µM | TGI: 7.29 µM

c1ccc(-c2nc(Nc3ccc(-c4nc5ccccc5[nH]4)cc3)nc(N3CCOCC3)n2)cc1
GI50: 2.13 µM | TGI: 4.39 µM

CCCCCCn1c(-c2ccc(C(=O)O/N=C(\N)c3ccc(OC)cc3)cc2)nc(-c2ccccc2)c1-c1ccccc1
GI50: 1.75 µM | TGI: 3.51 µM

CCN(CC)CCC(=O)Nc1cccc2c1C(=O)c1c(c(O)c3ccccc3c1O)C2=O
GI50: > 100 µM | TGI: > 100 µM

CNC(=O)c1cc(Oc2ccc3nc(NC(=O)Nc4ccc(Cl)c(Cl)c4)sc3c2)ccn1
GI50: 1.97 µM | TGI: 5.09 µM

CCN(CC)c1ccc(/C=N/NC(=O)c2ccc(Nc3ccnc(C(F)(F)F)c3)cc2)c(O)c1
GI50: 0.227 µM | TGI: 0.956 µM

CCCCCCN1C(=O)/C(=c2\sc3n(c2=O)C2C(NN=3)N(CC)C(=O)N2CC)c2ccccc21 (stereo unspecified)
GI50: 1.41 µM | TGI: > 50 µM
